The results in this text go back to publication PMC11530130, “Peripherally restricted PICK1 inhibitor mPD5 ameliorates pain behaviors in murine inflammatory and neuropathic pain models” (JCI Insight, 2024).

A short description of the data set: Flow-induced dispersion analysis (FIDA), critical micelle concentration. Type of data set: physicochemical. The text has this: Supplemental Figure S2. FIDA analysis of mPD5. (A) Molecular properties of mPD5.
(B) Taylorgrams for different concentrations of mPD5 using an uncoated capillary.
(C) Taylorgrams for different concentrations of mPD5 using a Poly-L-ornithine capillary.
(D) Taylorgrams for different concentrations of mPD5 using an HS-coated capillary.
(E) Graphical representation of mPD5 absorption using different coating strategies (B-D).
(F) Binding isotherm of mPD5 combining optimal coatings for different concentrations results in a CMC of 12 µM. […]
FIDA was carried out using a fluorescently labelled (AF488-NHS) mPD5 analogue, and fluorescence was recorded at 488 nm using mPD5-AF488 (25% labelling efficiency) as a tracer (100 nM), using the standard protocol recommended by the manufacturer, in short, mPD5 and mPD5-AF488 (25% labelling efficiency) was loaded to the FIDA1 instrument, and peptide sample was injected into the capillary followed by a buffer injection. The diffusion of the peptide could then be observed using 488 nm fluorescence, and the hydrodynamic radius was calculated using the FIDA software 2.0 using a single Gaussian distribution fit, at 75% and curve smoothing. […]
Concentration series of mPD5 ranging from 0.18 mg/mL to 9.37 mg/mL was prepared in buffer containing 50 mM Tris-HCl (pH 7.4) and 125 mM NaCl. Samples were measured at the P12 SAXS Beamline, PetraIII, DESY, Hamburg Germany (2). […]

Regarding `CCCCCCCCCCCCCC(=O)N(CCOCCOCCC(=O)N[C@@H](Cc1c[nH]cn1)C(=O)N[C@@H](Cc1c[nH]c2ccccc12)C(=O)N[C@@H](CC(C)C)C(=O)N[C@@H](CCCCN)C(=O)N[C@H](C(=O)O)C(C)C)CCOCCOCCC(=O)N[C@@H](Cc1c[nH]cn1)C(=O)N[C@@H](Cc1c[nH]c2ccccc12)C(=O)N[C@@H](CC(C)C)C(=O)N[C@@H](CCCCN)C(=O)N[C@H](C(=O)O)C(C)C` [mPD5, myristoyl-NPEG4-(HWLKV)2], the “critical micelle concentration (CMC)” value (FIDA binding isotherm, optimal coatings combined) is 12 µM. Also, for the setting “FIDA, micellar mPD5”, the “hydrodynamic radius (RH)” value is “≈ 30 Å”.
